In ChEMBL document CHEMBL3616371, “Synthesis of BF₃ catalyzed Mannich derivatives with excellent ee from phenylpropanolamine, study of their antimicrobial activity and molecular docking” (2015):

Assays:
Proteus vulgaris [1] = experiment: Antibacterial activity against Proteus vulgaris assessed as growth inhibition at 1 mg/well after 24 hrs by Well method; format: functional
[2] = test system: Staphylococcus epidermidis; experiment: Antibacterial activity against Staphylococcus epidermidis assessed as growth inhibition at 1 mg/well after 24 hrs by Well method; format: functional
Candida albicans [3] = experiment: Antifungal activity against Candida albicans assessed as growth inhibition at 1 mg/well after 48 hrs by Well method; format: functional
Pseudomonas aeruginosa [4] = experiment: Antibacterial activity against Pseudomonas aeruginosa assessed as growth inhibition at 1 mg/well after 24 hrs by Well method; format: functional
Proteus vulgaris [5] = experiment: Antibacterial activity against Proteus vulgaris after 24 hrs by two fold serial dilution method; format: functional
Klebsiella aerogenes [6] = experiment: Antibacterial activity against Enterobacter aerogenes assessed as growth inhibition at 1 mg/well after 24 hrs by Well method; format: functional
Micrococcus luteus [7] = experiment: Antibacterial activity against Micrococcus luteus assessed as growth inhibition at 1 mg/well after 24 hrs by Well method; format: functional
Candida albicans [8] = experiment: Antifungal activity against Candida albicans after 48 to 72 hrs by two fold serial dilution method; format: functional
Malassezia pachydermatis [9] = experiment: Antifungal activity against Malassezia pachydermatis after 48 to 72 hrs by two fold serial dilution method; format: functional
Salmonella typhimurium [10] = experiment: Antibacterial activity against Salmonella typhimurium after 24 hrs by two fold serial dilution method; format: functional, Salmonella enterica subsp. enterica serovar Typhimurium; details: Salmonella enterica
Shigella flexneri [11] = experiment: Antibacterial activity against Shigella flexneri assessed as growth inhibition at 1 mg/well after 24 hrs by Well method; format: functional
Shigella flexneri [12] = experiment: Antibacterial activity against Shigella flexneri after 24 hrs by two fold serial dilution method; format: functional
Bacillus subtilis [13] = experiment: Antibacterial activity against Bacillus subtilis after 24 hrs by two fold serial dilution method; format: functional
Salmonella typhimurium [14] = experiment: Antibacterial activity against Salmonella typhimurium assessed as growth inhibition at 1 mg/well after 24 hrs by Well method; format: functional, Salmonella enterica subsp. enterica serovar Typhimurium
Klebsiella pneumoniae [15] = experiment: Antibacterial activity against Klebsiella pneumoniae assessed as growth inhibition at 1 mg/well after 24 hrs by Well method; format: functional
Staphylococcus aureus [16] = experiment: Antibacterial activity against methicillin-resistant Staphylococcus aureus after 24 hrs by two fold serial dilution method; format: functional
[17] = test system: Staphylococcus epidermidis; experiment: Antibacterial activity against Staphylococcus epidermidis after 24 hrs by two fold serial dilution method; format: functional
Pseudomonas aeruginosa [18] = experiment: Antibacterial activity against Pseudomonas aeruginosa after 24 hrs by two fold serial dilution method; format: functional
Malassezia pachydermatis [19] = experiment: Antifungal activity against Malassezia pachydermatis assessed as growth inhibition at 1 mg/well after 48 hrs by Well method; format: functional
Staphylococcus aureus [20] = experiment: Antibacterial activity against Staphylococcus aureus after 24 hrs by two fold serial dilution method; format: functional
Staphylococcus aureus [21] = experiment: Antibacterial activity against Staphylococcus aureus assessed as growth inhibition at 1 mg/well after 24 hrs by Well method; format: functional
Klebsiella pneumoniae [22] = experiment: Antibacterial activity against Klebsiella pneumoniae after 24 hrs by two fold serial dilution method; format: functional
Micrococcus luteus [23] = experiment: Antibacterial activity against Micrococcus luteus after 24 hrs by two fold serial dilution method; format: functional
Klebsiella aerogenes [24] = experiment: Antibacterial activity against Enterobacter aerogenes after 24 hrs by two fold serial dilution method; format: functional
Staphylococcus aureus [25] = experiment: Antibacterial activity against methicillin-resistant Staphylococcus aureus assessed as growth inhibition at 1 mg/well after 24 hrs by Well method; format: functional
Bacillus subtilis [26] = experiment: Antibacterial activity against Bacillus subtilis assessed as growth inhibition at 1 mg/well after 24 hrs by Well method; format: functional
Aspergillus flavus [27] = experiment: Antifungal activity against Aspergillus flavus after 48 to 72 hrs by two fold serial dilution method; format: functional
[28] = test system: Salmonella enterica subsp. enterica serovar Paratyphi B; experiment: Antibacterial activity against Salmonella paratyphi B assessed as growth inhibition at 1 mg/well after 24 hrs by Well method; format: functional
Aspergillus flavus [29] = experiment: Antifungal activity against Aspergillus flavus assessed as growth inhibition at 1 mg/well after 48 hrs by Well method; format: functional

C[C@H](NCCC(=O)c1ccccc1)[C@H](O)c1ccccc1.Cl
inhibition zone (IZ) (Proteus vulgaris [1]): 25 mm | inhibition zone (IZ) [2]: 34 mm | inhibition zone (IZ) (Candida albicans [3]): 16 mm | inhibition zone (IZ) (Pseudomonas aeruginosa [4]): 20 mm | MIC (Proteus vulgaris [5]): 12.5 µg/mL | inhibition zone (IZ) (Klebsiella aerogenes [6]): 28 mm | inhibition zone (IZ) (Micrococcus luteus [7]): 30 mm | MIC (Candida albicans [8]): 50 µg/mL | MIC (Malassezia pachydermatis [9]): > 50 µg/mL | MIC (Salmonella typhimurium [10]): 12.5 µg/mL | inhibition zone (IZ) (Shigella flexneri [11]): 20 mm | MIC (Shigella flexneri [12]): 50 µg/mL | MIC (Bacillus subtilis [13]): 25 µg/mL | inhibition zone (IZ) (Salmonella typhimurium [14]): 26 mm | inhibition zone (IZ) (Klebsiella pneumoniae [15]): 21 mm | MIC (Staphylococcus aureus [16]): 12.5 µg/mL | MIC [17]: 3.13 µg/mL | MIC (Pseudomonas aeruginosa [18]): 25 µg/mL | inhibition zone (IZ) (Malassezia pachydermatis [19]): 12 mm | MIC (Staphylococcus aureus [20]): 12.5 µg/mL | inhibition zone (IZ) (Staphylococcus aureus [21]): 27 mm | MIC (Klebsiella pneumoniae [22]): 25 µg/mL | MIC (Micrococcus luteus [23]): 6.25 µg/mL | MIC (Klebsiella aerogenes [24]): 6.25 µg/mL | inhibition zone (IZ) (Staphylococcus aureus [25]): 27 mm | inhibition zone (IZ) (Bacillus subtilis [26]): 18 mm

C[C@H](NCCC(=O)c1cccc(O)c1)[C@H](O)c1ccccc1.Cl
inhibition zone (IZ) (Proteus vulgaris [1]): 24 mm | inhibition zone (IZ) [2]: 28 mm | inhibition zone (IZ) (Pseudomonas aeruginosa [4]): 22 mm | MIC (Proteus vulgaris [5]): 25 µg/mL | inhibition zone (IZ) (Klebsiella aerogenes [6]): 22 mm | inhibition zone (IZ) (Micrococcus luteus [7]): 35 mm | MIC (Salmonella typhimurium [10]): 25 µg/mL | inhibition zone (IZ) (Shigella flexneri [11]): 22 mm | MIC (Shigella flexneri [12]): 25 µg/mL | MIC (Bacillus subtilis [13]): 12.5 µg/mL | inhibition zone (IZ) (Salmonella typhimurium [14]): 22 mm | inhibition zone (IZ) (Klebsiella pneumoniae [15]): 24 mm | MIC (Staphylococcus aureus [16]): 25 µg/mL | MIC [17]: 6.25 µg/mL | MIC (Pseudomonas aeruginosa [18]): 12.5 µg/mL | MIC (Staphylococcus aureus [20]): 25 µg/mL | inhibition zone (IZ) (Staphylococcus aureus [21]): 24 mm | MIC (Klebsiella pneumoniae [22]): 25 µg/mL | MIC (Micrococcus luteus [23]): 3.13 µg/mL | MIC (Klebsiella aerogenes [24]): 25 µg/mL | inhibition zone (IZ) (Staphylococcus aureus [25]): 23 mm | inhibition zone (IZ) (Bacillus subtilis [26]): 23 mm

COc1ccc(C(=O)CCN[C@H](C)[C@@H](O)c2ccccc2)cc1.Cl
inhibition zone (IZ) (Proteus vulgaris [1]): 22 mm | inhibition zone (IZ) [2]: 24 mm | inhibition zone (IZ) (Pseudomonas aeruginosa [4]): 18 mm | MIC (Proteus vulgaris [5]): 12.5 µg/mL | MIC (Aspergillus flavus [27]): 50 µg/mL | inhibition zone (IZ) (Klebsiella aerogenes [6]): 19 mm | inhibition zone (IZ) (Micrococcus luteus [7]): 19 mm | MIC (Malassezia pachydermatis [9]): > 50 µg/mL | inhibition zone (IZ) [28]: 14 mm | MIC (Salmonella typhimurium [10]): 25 µg/mL | inhibition zone (IZ) (Shigella flexneri [11]): 24 mm | MIC (Shigella flexneri [12]): 25 µg/mL | MIC (Bacillus subtilis [13]): 25 µg/mL | inhibition zone (IZ) (Salmonella typhimurium [14]): 18 mm | inhibition zone (IZ) (Aspergillus flavus [29]): 16 mm | inhibition zone (IZ) (Klebsiella pneumoniae [15]): 16 mm | MIC (Staphylococcus aureus [16]): 6.25 µg/mL | MIC [17]: 6.25 µg/mL | MIC (Pseudomonas aeruginosa [18]): 25 µg/mL | MIC (Staphylococcus aureus [20]): 12.5 µg/mL | inhibition zone (IZ) (Staphylococcus aureus [21]): 20 mm | MIC (Klebsiella pneumoniae [22]): > 50 µg/mL | MIC (Micrococcus luteus [23]): 12.5 µg/mL | MIC (Klebsiella aerogenes [24]): 12.5 µg/mL | inhibition zone (IZ) (Staphylococcus aureus [25]): 22 mm | inhibition zone (IZ) (Bacillus subtilis [26]): 22 mm

Cc1ccc(C(=O)CCN[C@H](C)[C@@H](O)c2ccccc2)cc1.Cl
inhibition zone (IZ) (Proteus vulgaris [1]): 28 mm | inhibition zone (IZ) [2]: 31 mm | inhibition zone (IZ) (Pseudomonas aeruginosa [4]): 23 mm | MIC (Proteus vulgaris [5]): 6.25 µg/mL | MIC (Aspergillus flavus [27]): 50 µg/mL | inhibition zone (IZ) (Klebsiella aerogenes [6]): 27 mm | inhibition zone (IZ) (Micrococcus luteus [7]): 22 mm | MIC (Salmonella typhimurium [10]): 12.5 µg/mL | inhibition zone (IZ) (Shigella flexneri [11]): 20 mm | MIC (Shigella flexneri [12]): 50 µg/mL | MIC (Bacillus subtilis [13]): 12.5 µg/mL | inhibition zone (IZ) (Salmonella typhimurium [14]): 25 mm | inhibition zone (IZ) (Aspergillus flavus [29]): 20 mm | inhibition zone (IZ) (Klebsiella pneumoniae [15]): 15 mm | MIC (Staphylococcus aureus [16]): 6.25 µg/mL | MIC [17]: 3.13 µg/mL | MIC (Pseudomonas aeruginosa [18]): 12.5 µg/mL | MIC (Staphylococcus aureus [20]): 25 µg/mL | inhibition zone (IZ) (Staphylococcus aureus [21]): 24 mm | MIC (Klebsiella pneumoniae [22]): 50 µg/mL | MIC (Micrococcus luteus [23]): 25 µg/mL | MIC (Klebsiella aerogenes [24]): 12.5 µg/mL | inhibition zone (IZ) (Staphylococcus aureus [25]): 28 mm | inhibition zone (IZ) (Bacillus subtilis [26]): 22 mm

Cc1ccc(C(=O)CCN[C@@H](C)[C@H](O)c2ccccc2)cc1.Cl
inhibition zone (IZ) (Proteus vulgaris [1]): 24 mm | inhibition zone (IZ) [2]: 24 mm | inhibition zone (IZ) (Pseudomonas aeruginosa [4]): 20 mm | MIC (Proteus vulgaris [5]): 3.13 µg/mL | MIC (Aspergillus flavus [27]): 50 µg/mL | inhibition zone (IZ) (Klebsiella aerogenes [6]): 24 mm | inhibition zone (IZ) (Micrococcus luteus [7]): 22 mm | MIC (Salmonella typhimurium [10]): 3.13 µg/mL | inhibition zone (IZ) (Shigella flexneri [11]): 22 mm | MIC (Shigella flexneri [12]): 3.13 µg/mL | MIC (Bacillus subtilis [13]): 6.25 µg/mL | inhibition zone (IZ) (Salmonella typhimurium [14]): 23 mm | inhibition zone (IZ) (Aspergillus flavus [29]): 22 mm | inhibition zone (IZ) (Klebsiella pneumoniae [15]): 13 mm | MIC (Staphylococcus aureus [16]): 3.13 µg/mL | MIC [17]: 3.13 µg/mL | MIC (Pseudomonas aeruginosa [18]): 3.13 µg/mL | MIC (Staphylococcus aureus [20]): 3.13 µg/mL | inhibition zone (IZ) (Staphylococcus aureus [21]): 22 mm | MIC (Micrococcus luteus [23]): 3.13 µg/mL | MIC (Klebsiella aerogenes [24]): 3.13 µg/mL | inhibition zone (IZ) (Staphylococcus aureus [25]): 23 mm | inhibition zone (IZ) (Bacillus subtilis [26]): 18 mm
